Measured values taken from patent EP1900728A1 (Genecare Research Institute Co., Ltd, priority 2005, dated 2006).
Like-named read-outs stand apart in the source and are kept apart here.

Columns and labels:
[1] = molecular target: T1, IκBα ubiquitinating enzyme (SCF complex: ROC1, Cullin1, Skp1, His-TrCP1; with E1, UbcH5b) (Homo sapiens, UniProt P62877+P63208+Q13616+Q9Y297); assay: Measurement of ubiquitinating enzyme activity (IκBα ubiquitination, time-resolved fluorescence with Eu(K)-labeled ubiquitin and XL665-labeled anti-GST antibody); type: biochemical
T1 construct: His (polyhistidine); made in house; host or cells: insect cells (baculovirus) for the SCF complex and His-E1; E. coli for His-UBCH5b
How it was run: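 Human SCF complex with E1 and UbcH5b ubiquitinated GST-IκBα pre-phosphorylated by IKKβ (2 mM ATP, pH 7.4, 1 h, RT), with Eu(K)-ubiquitin, 30 min RT. Stopped with EDTA, XL665 anti-GST added for 2 h; 665/620 nm TR-FRET ratio. % inhibition versus no-compound control and no-SCF blank gave IC50.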

[2] = test system: ICAM-1 expression in HT-29 cells; assay: Measurement of ICAM-1 expressing activity (TNFα-induced ICAM-1 expression, cell ELISA); type: cell-based; details: Homo sapiens, Table 6, cell activity inhibition test by method (3), read-out: EVALUATION (IC50 class, inhibition of cell activity)
How it was run: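 Cell ELISA read-out (anti-ICAM-1, peroxidase secondary, TMBZ, A450) after methanol fixation. Before that, HT-29 cells had 30 min compound exposure at 37°C (final DMSO 0.5%) followed by 4 h with 30 ng/mL human TNFα.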

[3] = enzyme activity inhibition test, method (1), Table 5, read-out: EVALUATION

T1 sequence (Q9Y297 whole entry): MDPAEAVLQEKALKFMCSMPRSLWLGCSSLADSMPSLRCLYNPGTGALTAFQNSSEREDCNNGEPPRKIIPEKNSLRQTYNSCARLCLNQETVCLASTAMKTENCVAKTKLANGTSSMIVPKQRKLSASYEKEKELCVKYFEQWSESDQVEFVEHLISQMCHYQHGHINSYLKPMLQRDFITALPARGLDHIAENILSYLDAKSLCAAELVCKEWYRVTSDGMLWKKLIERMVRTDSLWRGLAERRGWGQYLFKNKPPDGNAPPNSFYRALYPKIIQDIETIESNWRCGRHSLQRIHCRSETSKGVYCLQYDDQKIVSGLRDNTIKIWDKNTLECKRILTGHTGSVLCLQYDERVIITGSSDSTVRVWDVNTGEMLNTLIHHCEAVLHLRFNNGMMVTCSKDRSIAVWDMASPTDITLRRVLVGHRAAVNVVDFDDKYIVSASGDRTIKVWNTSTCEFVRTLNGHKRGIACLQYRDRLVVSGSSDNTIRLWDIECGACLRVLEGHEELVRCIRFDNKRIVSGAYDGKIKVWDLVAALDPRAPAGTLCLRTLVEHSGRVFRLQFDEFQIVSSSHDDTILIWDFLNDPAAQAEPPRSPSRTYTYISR
T1 sequence (Q13616 whole entry): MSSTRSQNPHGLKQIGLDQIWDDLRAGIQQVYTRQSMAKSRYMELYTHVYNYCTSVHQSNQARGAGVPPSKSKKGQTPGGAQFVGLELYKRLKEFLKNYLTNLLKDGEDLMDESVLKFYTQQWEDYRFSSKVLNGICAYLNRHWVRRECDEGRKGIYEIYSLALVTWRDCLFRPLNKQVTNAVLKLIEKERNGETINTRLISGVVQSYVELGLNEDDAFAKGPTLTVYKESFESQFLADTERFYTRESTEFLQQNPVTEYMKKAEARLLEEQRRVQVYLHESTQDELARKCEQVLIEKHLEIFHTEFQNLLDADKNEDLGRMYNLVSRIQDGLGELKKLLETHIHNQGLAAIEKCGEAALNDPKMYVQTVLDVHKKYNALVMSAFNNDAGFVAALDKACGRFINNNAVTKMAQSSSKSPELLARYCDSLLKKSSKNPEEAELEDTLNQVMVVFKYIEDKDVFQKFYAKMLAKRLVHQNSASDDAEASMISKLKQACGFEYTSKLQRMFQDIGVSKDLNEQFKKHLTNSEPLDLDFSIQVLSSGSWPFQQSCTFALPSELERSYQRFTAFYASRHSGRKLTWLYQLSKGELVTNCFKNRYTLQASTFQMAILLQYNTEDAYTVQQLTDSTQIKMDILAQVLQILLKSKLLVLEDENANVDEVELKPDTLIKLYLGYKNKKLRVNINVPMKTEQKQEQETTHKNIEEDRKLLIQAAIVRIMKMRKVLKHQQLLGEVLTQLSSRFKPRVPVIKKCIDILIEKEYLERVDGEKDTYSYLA
T1 sequence (P63208 whole entry): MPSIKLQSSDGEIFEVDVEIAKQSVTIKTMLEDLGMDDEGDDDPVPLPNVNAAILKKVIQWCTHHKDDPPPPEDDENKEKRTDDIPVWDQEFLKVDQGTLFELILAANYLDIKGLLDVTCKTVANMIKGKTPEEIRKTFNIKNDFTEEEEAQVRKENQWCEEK
T1 sequence (P62877 whole entry): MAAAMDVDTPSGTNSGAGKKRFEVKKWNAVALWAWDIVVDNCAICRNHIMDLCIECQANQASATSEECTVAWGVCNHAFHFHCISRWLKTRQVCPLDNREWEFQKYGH

Row | SMILES | IC50 [1, 3] [µM] | IC50 [2] [µM] | IC50 [1] [µM]
1 | COc1cc(/C=C2\C(=O)N(c3ccc(S(N)(=O)=O)cc3)N=C2C)ccc1OS(=O)(=O)c1ccc(C)cc1 [Compound 202] | 10 to 20 | < 40 | –
2 | COc1ccccc1-c1ccc(/C=C2\C(=O)N(c3ccc(C(=O)O)cc3)N=C2c2ccoc2)o1 [Compound 483] | < 10 | 10 to 20 | –
3 | COCC1=NN(c2ccc(C(=O)O)cc2)C(=O)/C1=C\c1nccs1 [Compound 237] | 10 to 20 | < 40 | –
4 | CC1=NN(c2ccc(S(N)(=O)=O)cc2)C(=O)/C1=C\c1ccc2[nH]ccc2c1 [Compound 133] | < 10 | < 40 | –
5 | CC1=NN(c2ccc(S(N)(=O)=O)cc2)C(=O)C1=Cc1ccc(OCc2ccc([N+](=O)[O-])cc2)cc1 [Compound 216] | – | < 40 | < 10
6 | O=C(O)c1ccc(N2N=C(Cc3ccccc3)/C(=C/c3ccc(CO)o3)C2=O)cc1 [Compound 268] | 10 to 20 | < 40 | –
7 | O=C(O)c1ccc(N2N=C(C3CC3)/C(=C/c3ccc(-n4cccn4)cc3)C2=O)cc1 [Compound 322] | < 10 | 10 to 20 | –
8 | COCC1=NN(c2ccc(C(=O)O)cc2)C(=O)/C1=C\c1ccc(N2CCCC2)cc1 [Compound 236] | < 10 | 10 to 20 | –
9 | COCC1=NN(c2ccc(C(=O)O)cc2)C(=O)/C1=C\c1ccc(-n2cccn2)cc1 [Compound 242] | < 10 | 10 to 20 | –
10 | CCCCC1=NN(c2ccc(C(=O)O)cc2)C(=O)/C1=C\c1ccc(OCc2ccccc2)c(OC)c1 [Compound 296] | < 10 | < 40 | –
11 | CC1=NN(c2ccc(C(=O)O)cc2)C(=O)/C1=C\c1ccc(F)cc1 [Compound 351] | 10 to 20 | < 40 | –
12 | CC1=NN(c2cccc(C(=O)O)c2)C(=O)C1=Cc1cc2ccccc2o1 [Compound 428] | – | < 40 | 10 to 20
